Converted amounts (≈) assume the structure as drawn.
Experiments:
[1] = test system: ILV5; assay: Semi-quantitative RT-PCR expression analysis of ilv5; format: cell-based, Saccharomyces cerevisiae BY4741; conditions: sub-lethal dose, 4 hours treatment; actin loading control
Protocol: (§1) A semi quantitative RT-PCR analysis was used to investigate any possible effect of new antifungal compounds on the expression level of candidate gene targets.
(§2) The RNA samples were prepared by using a commercial kit i.e. RNA easy mini kit, QIAGEN, Germany. A beads cell disrupter i.e. Micro Smash™, Tomy, Japan was used during the cell lysis process. All RNA preparation steps were performed according to the manufacturer's instructions.
(§3) 1 microgram of total RNA was used in cDNA synthesis reaction. A commercial kit i.e. first strand cDNA Synthesis Kit, Fermentas, USA was used for cDNA synthesis. Total cDNA was prepared using random hexamer primer and all steps were according to the manufacturer's instructions. A typical reaction was performed as table 1 below.
(§4) RT-PCR analysis was carried out to examine the effect of new antifungal compounds on the expression level of genes involved in aliphatic amino acids biosynthesis. Three genes, ilv2, ilv3 and ilv5 were chosen for further analysis. RNA samples were isolated from the yeast cells exposed to sub-lethal or sub-inhibitory concentrations of new antifungal compounds and following a cDNA preparation. RT-PCR was performed using the gene specific primers.
(§5) RT-PCR products were visualized by electrophoresis on agarose gel and staining by ethidium bromide.
(§6) An overnight culture of yeast Saccharomyces cerevisiae BY4741 was prepared. […]

[2] = test system: ILV3; assay: Semi-quantitative RT-PCR expression analysis of ilv3; format: cell-based, Saccharomyces cerevisiae BY4741; conditions: sub-lethal dose, 4 hours treatment; actin loading control
Protocol: as §1, §2, §3, §4, §5, §6

[3] = test system: yeast cells; assay: Reversal assay: amino acids/metabolites reversing the antifungal activity at MIC level; format: cell-based, Saccharomyces cerevisiae
Protocol: Performing reversal assay: The reversal assay according to the embodiments herein is performed by the following steps in general: First the yeast strain is grown in presence of minimum inhibitory concentrations of the compounds to be tested. Then different concentrations of amino acids or metabolite intermediates are added to reverse the inhibitory effect of the test compounds. Then again the growth is checked and the minimum concentration of the metabolite or amino acids required for reversing the inhibitory effect is determined.
An experiment was designed for finding the metabolite that reverses the antifungal activity of the test compound.
With respect to FIG. 3, a cell suspension containing 1.5×10^5 yeast/ml was prepared in RPMI medium (1.2×) enriched by 2% glucose. […] 80 μl of this suspension was added to each well of a 96 well micro plate in the second row. Subsequently, two fold dilutions of reversing metabolite were prepared in the first row of the same microplate and 20 μl of each dilution was added to the related well of the second row. The plate was incubated at 30° C. overnight. Following an overnight incubation, the plate was checked for any visible growth of the strain. In case of any growth, the reversing metabolite was considered for further analysis.
In this test, all the amino acids, nucleic acids and intermediate metabolites of citric acid cycle were tested separately.
For all the compounds the mixture of mediators was evaluated. After observing that the compound was reversed, each of the mediating materials was tested separately. Reversal assay test has been done for all of the amino acids like glycine, alanine, leucine, isoleucine and valine.
Row G indicates a compound B in the absence of amino acids and cells. Row H is control cell.

[4] = test system: yeast cells; assay: Minimum Inhibitory Concentration (MIC) by micro serial dilution in 96 well plate; format: cell-based; conditions: Saccharomyces cerevisiae, 48 hours incubation
Protocol: Two fold serial dilutions of the compounds to be tested according to the embodiments herein were prepared in 96 well plates. 40 μl of appropriate test compound dilution was added to 160 μl of culture medium and the plate was incubated at 30° C. The culture medium is Yeast Peptone Dextrose agar (YPD) containing 10^3 yeast cells. The growth of yeast cells was monitored for 24 hr and 48 hr. Fluorouracil was used as a positive control and Dimethyl sulfoxide (DMSO-control solvent) was used as negative control. The minimum concentration of the test compound A which inhibits the fungal growth was defined as MIC. MIC level is defined as the minimum concentration of the compound which prevents the growth of pathogen. […]
After providing a serial dilution in the second row, 20 μl of the wells of the second row was transformed to the wells of first row and final volume of the wells of first row was changed to 100 μl. Finally, a surrounding part of each plate was covered with parafilm and was incubated under 37 degree of centigrade. the results were read out After 24 hours and 48 hours. […]
As a result of the growth of the fungus the medium is becoming cloudy. […] For defining the MIC, as well as the sample, positive control i.e. an approved antifungal drug like fluorouracil were measured. A solution control and a negative control i.e. only the fungal suspension were measured. […]

[5] = test system: ILV2; assay: Semi-quantitative RT-PCR expression analysis of ilv2; format: cell-based, Saccharomyces cerevisiae BY4741; conditions: sub-lethal dose, 4 hours treatment; actin loading control
Protocol: as §1, §2, §3, §4, §5, §6

Row | SMILES | Expression level of ilv5, treated vs untreated cells [1] | Expression level of ilv3, treated vs untreated cells [2] | Minimum Reversal Concentration (MRC), isoleucine ([3]; isoleucine added 0-200 μg/ml, compound at constant MIC level) [µg/mL] | Minimum Reversal Concentration (MRC), leucine ([3]; leucine added 0-200 μg/ml, compound at constant MIC level) [µg/mL] | Minimum Reversal Concentration (MRC), valine ([3]; valine added 0-200 μg/ml, compound at constant MIC level) [µg/mL] | MIC [4] [µg/mL] | Expression level of ilv2, treated vs untreated cells [5] | reversal property of the antifungal activity [3]
1 | CCOC(=O)C#C/C=C/C(=O)OCC [compound B, diethyl-hex-2-en-4-yne-dioate] | higher than that in the untreated cells | unchanged | 25 | 12.5 | 12.5 | 1.5 (≈ 7.65 µM) | unchanged | 
2 | C#CC(=O)Oc1ccc2ccc(=O)oc2c1 [compound A, 2-oxo-2H-chromen-7-yl propiolate] |  |  |  |  |  |  |  | lacks the reversal property
